According to ChEMBL document CHEMBL1177789, “Inhibitors for expression of IgE receptor on human mast cell from Puerariae Flos” (Bioorg Med Chem Lett, 2010):
Active and inactive are the calls of the source. No cut-off for these calls is given here.

Tests used:
HMC1 [1] = experiment: Antiallergic activity in human HMC1 cells assessed as inhibition of IgE […] receptor expression after 72 hrs by flow cytometry; type: functional, cell-based
[2] = Cytotoxicity against human HMC1 cells at 50 uM after 72 hrs; type: cell-based; conditions: hmc1, 72 h
HMC1 [3] = experiment: Antiallergic activity in human HMC1 cells assessed as inhibition of IgE […] receptor mRNA expression after 72 hrs by RT-PCR; type: functional, cell-based

Structure (SMILES)	inhibition (HMC1 [1])	Activity [2]	inhibition (HMC1 [3])
COc1cc2occ(-c3ccc(O)cc3)c(=O)c2cc1OC	Active	Non-toxic	–
COc1c(O)cc2occ(-c3ccc(O)cc3)c(=O)c2c1O	–	–	Active
